pIC50, pKi: −log10 of the molar value. Like-named read-outs stand apart in the source and are kept apart here.

In experiment [1] the target is T1, rat GPR14 (U-II receptor) (Rattus norvegicus, UniProt P49684).
T1 construct: expressed in transfected cells
T1 sequence (P49684 1-386): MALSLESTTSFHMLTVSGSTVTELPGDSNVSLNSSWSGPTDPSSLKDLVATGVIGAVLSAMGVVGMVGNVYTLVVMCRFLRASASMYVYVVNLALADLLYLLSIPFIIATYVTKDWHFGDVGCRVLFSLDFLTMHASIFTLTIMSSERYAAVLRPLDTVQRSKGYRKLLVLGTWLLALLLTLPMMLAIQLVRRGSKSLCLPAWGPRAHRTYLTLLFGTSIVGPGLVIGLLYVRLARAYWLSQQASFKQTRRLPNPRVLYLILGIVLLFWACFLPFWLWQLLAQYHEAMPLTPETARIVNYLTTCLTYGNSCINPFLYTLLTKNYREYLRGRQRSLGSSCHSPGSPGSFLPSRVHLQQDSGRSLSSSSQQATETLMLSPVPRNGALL
Put plainly: Calcium flux assay (FLIPR). Particulars: Inhibition of acetyl-cyclic[Cys-Phe-Trp-Lys-(2-Nal)-Cys]-NH2 (1 nM) induced Ca2+ mobilization (FLIPR) in CHO cells transfected with rat UII receptor; 5 min incubation. The class given is cell-based. The essentials: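 Stable CHO cell line expressing cloned rat U-II receptor, seeded 24 h before assay, loaded with FLIPR calcium dye in HBSS/20 mM HEPES/0.1% BSA/2.5 mM probenecid, pH 7.4, for 1 hr at 37° C. Calcium mobilization read at room temperature (23° C.).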
Background: Calcium assays in cells follow changes in intracellular calcium, usually with a dye or a luminescent sensor.

For the next experiment, the target named is T2, Human UII receptors (Homo sapiens, UniProt Q9UKP6).
T2 construct: host or cells: Human Skeletal Muscle Myoblasts (HSMM), intact adherent cells
T2 sequence (Q9UKP6 1-389): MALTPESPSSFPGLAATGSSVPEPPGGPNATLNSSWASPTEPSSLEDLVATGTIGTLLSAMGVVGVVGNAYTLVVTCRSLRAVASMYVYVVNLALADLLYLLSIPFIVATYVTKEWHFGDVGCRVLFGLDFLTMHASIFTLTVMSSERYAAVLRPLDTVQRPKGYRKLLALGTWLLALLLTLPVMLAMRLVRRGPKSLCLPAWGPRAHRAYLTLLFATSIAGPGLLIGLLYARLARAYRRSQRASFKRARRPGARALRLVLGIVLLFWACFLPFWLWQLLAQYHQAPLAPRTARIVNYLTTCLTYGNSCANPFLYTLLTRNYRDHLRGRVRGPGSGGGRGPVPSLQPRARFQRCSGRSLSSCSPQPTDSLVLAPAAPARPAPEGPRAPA
Description: Human radioligand binding assay, (125I)-U-II on HSMM. As to the method:
Human Skeletal Muscle Myoblasts (HSMM) were obtained from Cambrex, and were cultured according to manufacturer's instruction. Cell viability was examined by trypan blue exclusion. Cells at less than 4 passages were used in all studies. […] The binding medium used was Dulbecco's modified Eagle's medium (DMEM) containing 2 mg/ml BSA and 25 mM HEPES (pH 7.4). […] The cells were washed 4× with the binding medium and solubilized in 1% SDS and 0.5 N NaOH. Radioactivity was quantified by gamma counting.

Where [2] appears, read: 0.150 nM (125I)-U-II, intact Human Skeletal Muscle Myoblasts, 3 hrs, 25° C., read-out: Ki.

On to `CC(C)(C)OC(=O)NCCOCCNC(=O)c1cc(Cl)ccc1C1CCN(CCN2C(=O)COc3ccccc32)CC1` [Cpd 79, {2-[2-(5-chloro-2-{1-[2-(3-oxo-2,3-dihydro-benzo[1,4]oxazin-4-yl)-ethyl]-piperidin-4-yl}-benzoylamino)-ethoxy]-ethyl}-carbamic acid tert-butyl ester], for which the pIC50 (in general, the IC50 on a negative log10 scale, so that one unit is a factor of ten) in experiment [1] is 7.43. Besides, the pKi (in general, −log10 of the Ki, conventionally taken in molar units) on Human UII receptors was 7.28.
For the molecule `O=C(NCCCCCNC(=O)c1cc(Cl)ccc1C1CCN(CCN2C(=O)COc3ccccc32)CC1)NCc1ccccc1` [Cpd 77, N-[5-(3-benzyl-ureido)-pentyl]-5-chloro-2-{1-[2-(3-oxo-2,3-dihydro-benzo[1,4]oxazin-4-yl)-ethyl]-piperidin-4-yl}-benzamide], in experiment [1], the pIC50 is 7.57. Moreover, on Human UII receptors (setting [2]), the pKi is 7.43.
In the same order, the values of `CC(C)(C)OC(=O)NCCCCCNC(=O)c1ccccc1[C@@H]1C[C@H]2CC[C@@H](C1)N2CCN1C(=O)COc2ccccc21` [Cpd 98, [5-(2-{8-[2-(3-oxo-2,3-dihydro-benzo[1,4]oxazin-4-yl)-ethyl]-8-aza-bicyclo[3.2.1]oct-3-yl}-benzoylamino)-pentyl]-carbamic acid tert-butyl ester] are 5.80 and 5.85.
Consider `O=C(NCCCCCNC(=O)c1cc(Cl)ccc1C1CCN(CCN2C(=O)COc3ccccc32)CC1)NCCc1ccccc1` [Cpd 82, 5-chloro-2-{1-[2-(3-oxo-2,3-dihydro-benzo[1,4]oxazin-4-yl)-ethyl]-piperidin-4-yl}-N-[5-(3-phenethyl-ureido)-pentyl]-benzamide], for which the pIC50 in experiment [1] is 6.77. Besides, the pKi on Human UII receptors (setting [2]) was 6.92.
For `O=C(NCCNC(=O)c1ccccc1C1CCN(CCN2C(=O)COc3ccccc32)CC1)Nc1cccc2ccccc12` [Cpd 55, N-[2-(3-naphthalen-1-yl-ureido)-ethyl]-2-{1-[2-(3-oxo-2,3-dihydro-benzo[1,4]oxazin-4-yl)-ethyl]-piperidin-4-yl}-benzamide], in that order: 5.70 and 6.08.
With `O=C(NCCCCCNC(=O)c1cc(Cl)ccc1C1CCN(CCN2C(=O)COc3ccccc32)CC1)OCc1ccccc1` [Cpd 75, [5-(5-chloro-2-{1-[2-(3-oxo-2,3-dihydro-benzo[1,4]oxazin-4-yl)-ethyl]-piperidin-4-yl}-benzoylamino)-pentyl]-carbamic acid benzyl ester], the pIC50 in experiment [1] was 7.40. Moreover, at Human UII receptors (setting [2]), the pKi was 7.47.
Take `O=C(NCCc1ccc(Br)cc1)c1ccccc1C1CCN(CCN2C(=O)COc3ccccc32)CC1` [Cpd 34, N-[2-(4-bromo-phenyl)-ethyl]-2-{1-[2-(3-oxo-2,3-dihydro-benzo[1,4]oxazin-4-yl)-ethyl]-piperidin-4-yl}-benzamide]: the pIC50 in experiment [1] is 5.52. The pKi at Human UII receptors (setting [2]) was 6.21.
In the same order, the values of `CC(C)(C)OC(=O)NCCCCCNC(=O)c1cc(Cl)ccc1C1CCN(CCN2C(=O)COc3ccccc32)CC1` [Cpd 70, [5-(5-chloro-2-{1-[2-(3-oxo-2,3-dihydro-benzo[1,4]oxazin-4-yl)-ethyl]-piperidin-4-yl}-benzoylamino)-pentyl]-carbamic acid tert-butyl ester] are 7.49 and 7.60.
On to `CC(C)(C)OC(=O)NCCCCCNC(=O)c1cc(Cl)ccc1C1CC2CCC(C1)N2CCN1C(=O)COc2ccccc21` (stereo not shown) [Cpd 100, [5-(5-chloro-2-{8-[2-(3-oxo-2,3-dihydro-benzo[1,4]oxazin-4-yl)-ethyl]-8-aza-bicyclo[3.2.1]oct-3-yl}-benzoylamino)-pentyl]-carbamic acid tert-butyl ester], for which the pIC50 in experiment [1] was 6.35. For the same molecule, the pKi on Human UII receptors (setting [2]) was 5.92.
In the same order, the values of `CC(C)(C)OC(=O)NCCCCCNC(=O)c1cc(Cl)ccc1C1=CC2CCC(C1)N2CCN1C(=O)COc2ccccc21` (stereo not shown) [Cpd 95, [5-(5-chloro-2-{8-[2-(3-oxo-2,3-dihydro-benzo[1,4]oxazin-4-yl)-ethyl]-8-aza-bicyclo[3.2.1]oct-2-en-3-yl}-benzoylamino)-pentyl]-carbamic acid tert-butyl ester] are 6.19 and 5.89.
`O=C(NCCCc1ccccc1)c1ccccc1C1CCN(CCN2C(=O)COc3ccccc32)CC1` [Cpd 3]: the pIC50 in experiment [1] was 5.38. Also, the pKi at Human UII receptors (setting [2]) is 6.48.
As to `CC(C)(C)CC(=O)NCCCCCNC(=O)c1cc(Cl)ccc1C1CCN(CCN2C(=O)COc3ccccc32)CC1` [Cpd 76, 5-chloro-N-[5-(3,3-dimethyl-butyrylamino)-pentyl]-2-{1-[2-(3-oxo-2,3-dihydro-benzo[1,4]oxazin-4-yl)-ethyl]-piperidin-4-yl}-benzamide], in experiment [1], the pIC50 was 6.82. Moreover, the pKi on Human UII receptors was 7.37.
Turning to `O=C(NCCCCNC(=O)c1cc(Cl)ccc1C1CCN(CCN2C(=O)COc3ccccc32)CC1)OCc1ccccc1` [Cpd 69, [4-(5-chloro-2-{1-[2-(3-oxo-2,3-dihydro-benzo[1,4]oxazin-4-yl)-ethyl]-piperidin-4-yl}-benzoylamino)-butyl]-carbamic acid benzyl ester], the pIC50 in experiment [1] was 6.82. Moreover, the pKi at Human UII receptors (setting [2]) was 7.21.
For `CC(C)(C)OC(=O)N1CCN(CCNC(=O)c2ccccc2C2CC3CCC(C2)N3CCN2C(=O)COc3ccccc32)CC1` (stereo not shown) [Cpd 99, 4-[2-(2-{8-[2-(3-oxo-2,3-dihydro-benzo[1,4]oxazin-4-yl)-ethyl]-8-aza-bicyclo[3.2.1]oct-3-yl}-benzoylamino)-ethyl]-piperazine-1-carboxylic acid tert-butyl ester], in that order: 5.96 and 5.85.
As to `CC(C)(C)OC(=O)N1CCC(CNC(=O)c2ccccc2C2CCN(CCN3C(=O)COc4ccccc43)CC2)CC1` [Cpd 50, 4-[(2-{1-[2-(3-oxo-2,3-dihydro-benzo[1,4]oxazin-4-yl)-ethyl]-piperidin-4-yl}-benzoylamino)-methyl]-piperidine-1-carboxylic acid tert-butyl ester], the pIC50 in experiment [1] was 5.60. The pKi at Human UII receptors (setting [2]) was 6.37.
On to `CC(C)(C)CC(=O)N1CCC(CNC(=O)c2cc(Cl)ccc2C2CCN(CCN3C(=O)COc4ccccc43)CC2)CC1` [Cpd 65, 5-chloro-N-[1-(3,3-dimethyl-butyryl)-piperidin-4-ylmethyl]-2-{1-[2-(3-oxo-2,3-dihydro-benzo[1,4]oxazin-4-yl)-ethyl]-piperidin-4-yl}-benzamide], for which the pIC50 in experiment [1] is 6.48. Also, the pKi on Human UII receptors (setting [2]) was 7.49.
In the case of `CC(CN1C(=O)COc2ccccc21)N1CCC(c2ccc(Cl)cc2C(=O)NCC2CCN(S(=O)(=O)Cc3ccccc3)CC2)CC1` (stereo not shown) [Cpd 84, 5-chloro-2-{1-[1-methyl-2-(3-oxo-2,3-dihydro-benzo[1,4]oxazin-4-yl)-ethyl]-piperidin-4-yl}-N-(1-phenylmethanesulfonyl-piperidin-4-ylmethyl)-benzamide], the pIC50 in experiment [1] is 5.70. At Human UII receptors (setting [2]), the pKi is 6.68.
For `O=C(NCCc1ccc2ccccc2c1)c1ccccc1C1CCN(CCN2C(=O)COc3ccccc32)CC1` [Cpd 20, N-(2-naphthalen-2-yl-ethyl)-2-{1-[2-(3-oxo-2,3-dihydro-benzo[1,4]oxazin-4-yl)-ethyl]-piperidin-4-yl}-benzamide], in that order: 5.70 and 6.14.
In the same order, the values of `CC(C)(C)OC(=O)N1CCN(CCNC(=O)c2cc(Cl)ccc2C2=CC3CCC(C2)N3CCN2C(=O)COc3ccccc32)CC1` (stereo not shown) [Cpd 94, 4-[2-(5-chloro-2-{8-[2-(3-oxo-2,3-dihydro-benzo[1,4]oxazin-4-yl)-ethyl]-8-aza-bicyclo[3.2.1]oct-2-en-3-yl}-benzoylamino)-ethyl]-piperazine-1-carboxylic acid tert-butyl ester] are 6.54 and 5.72.
For `O=C(NCCc1c[nH]c2ccccc12)c1ccccc1C1CCN(CCN2C(=O)COc3ccccc32)CC1` [Cpd 26, N-[2-(1H-indol-3-yl)-ethyl]-2-{1-[2-(3-oxo-2,3-dihydro-benzo[1,4]oxazin-4-yl)-ethyl]-piperidin-4-yl}-benzamide], in that order: 5.70 and 6.12.
